Test results from PMC7316778 (Nature Communications, 2020).
Where “and” joins values, the source holds several entries; their conditions need not be identical. Equal entries are not always repeated. Where two headings read alike, the source gives them in different places.

Tests used:
Test in all cases: SelectScreen kinase assay
[1] = biological target: CDK14 (PFTK1)/cyclin Y (Homo sapiens, UniProt O94921)
Protocol: (§1) Selectivity profiling assays were performed by the Invitrogen SelectScreen™ Services. […] The concentration of ATP was selected to be equal to the KM, unless indicated otherwise.

[2] = biological target: BLK (Homo sapiens, UniProt P51451)
Protocol: as §1

[3] = biological target: T1, MYO3B (MYO3 beta) (Homo sapiens, UniProt Q8WXR4)
T1 sequence (Q8WXR4 1-1341): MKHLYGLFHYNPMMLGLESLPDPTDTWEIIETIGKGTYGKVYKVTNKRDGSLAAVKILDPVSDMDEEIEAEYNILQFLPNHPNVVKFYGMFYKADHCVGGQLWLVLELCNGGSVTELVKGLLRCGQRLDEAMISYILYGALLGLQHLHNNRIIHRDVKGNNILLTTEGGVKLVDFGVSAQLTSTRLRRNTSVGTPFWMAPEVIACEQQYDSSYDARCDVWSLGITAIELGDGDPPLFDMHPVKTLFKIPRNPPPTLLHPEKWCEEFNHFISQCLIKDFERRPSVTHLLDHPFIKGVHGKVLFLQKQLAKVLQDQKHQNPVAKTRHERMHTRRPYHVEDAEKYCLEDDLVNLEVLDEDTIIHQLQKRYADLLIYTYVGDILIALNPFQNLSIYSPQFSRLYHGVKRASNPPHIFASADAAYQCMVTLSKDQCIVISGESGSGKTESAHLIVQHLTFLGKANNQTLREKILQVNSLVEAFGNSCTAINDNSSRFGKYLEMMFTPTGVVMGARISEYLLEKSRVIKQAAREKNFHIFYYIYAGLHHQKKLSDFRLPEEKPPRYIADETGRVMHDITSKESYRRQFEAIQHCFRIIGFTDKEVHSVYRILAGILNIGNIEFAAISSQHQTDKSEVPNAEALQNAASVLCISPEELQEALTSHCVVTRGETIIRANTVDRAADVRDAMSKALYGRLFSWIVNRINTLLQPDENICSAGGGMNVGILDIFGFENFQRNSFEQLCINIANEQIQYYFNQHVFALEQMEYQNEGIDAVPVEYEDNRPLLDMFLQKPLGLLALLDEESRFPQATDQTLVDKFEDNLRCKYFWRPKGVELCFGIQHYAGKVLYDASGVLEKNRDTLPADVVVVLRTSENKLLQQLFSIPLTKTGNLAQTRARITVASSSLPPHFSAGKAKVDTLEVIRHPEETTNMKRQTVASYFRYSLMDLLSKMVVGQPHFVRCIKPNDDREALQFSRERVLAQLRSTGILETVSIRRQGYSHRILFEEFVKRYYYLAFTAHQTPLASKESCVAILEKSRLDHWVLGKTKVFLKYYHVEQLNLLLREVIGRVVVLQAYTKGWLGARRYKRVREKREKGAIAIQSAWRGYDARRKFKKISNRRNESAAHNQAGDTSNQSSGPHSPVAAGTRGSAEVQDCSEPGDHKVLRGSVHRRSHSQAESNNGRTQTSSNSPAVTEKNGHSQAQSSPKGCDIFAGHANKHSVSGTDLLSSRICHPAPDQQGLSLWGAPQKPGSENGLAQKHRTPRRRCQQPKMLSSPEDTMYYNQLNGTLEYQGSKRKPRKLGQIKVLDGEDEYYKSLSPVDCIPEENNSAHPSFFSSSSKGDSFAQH
Protocol: as §1

[4] = biological target: HIPK2 (Homo sapiens, UniProt Q9H2X6); conditions: for Inhibition at 1 µM (%): HIPK2, ZLYTE, ATP Km app
Protocol: as §1

[5] = biological target: T2, MYLK4 (Homo sapiens, UniProt Q86YV6)
T2 sequence (Q86YV6 1-388): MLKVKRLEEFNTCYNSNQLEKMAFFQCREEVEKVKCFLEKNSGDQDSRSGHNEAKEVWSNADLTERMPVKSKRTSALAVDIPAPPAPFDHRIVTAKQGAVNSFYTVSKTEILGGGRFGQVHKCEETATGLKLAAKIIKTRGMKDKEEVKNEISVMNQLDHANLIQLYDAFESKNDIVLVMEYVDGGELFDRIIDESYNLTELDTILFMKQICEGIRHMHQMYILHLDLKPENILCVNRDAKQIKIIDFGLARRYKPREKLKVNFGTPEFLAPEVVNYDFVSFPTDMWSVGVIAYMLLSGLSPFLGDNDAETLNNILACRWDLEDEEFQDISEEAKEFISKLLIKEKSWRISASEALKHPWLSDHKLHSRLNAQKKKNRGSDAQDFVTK
Protocol: as §1

[6] = biological target: T3, PRKCI (PKC iota) (Homo sapiens, UniProt P41743); conditions: for Inhibition at 1 µM (%): PRKCI (PKC iota), ZLYTE, ATP Km app
T3 sequence (P41743 1-596): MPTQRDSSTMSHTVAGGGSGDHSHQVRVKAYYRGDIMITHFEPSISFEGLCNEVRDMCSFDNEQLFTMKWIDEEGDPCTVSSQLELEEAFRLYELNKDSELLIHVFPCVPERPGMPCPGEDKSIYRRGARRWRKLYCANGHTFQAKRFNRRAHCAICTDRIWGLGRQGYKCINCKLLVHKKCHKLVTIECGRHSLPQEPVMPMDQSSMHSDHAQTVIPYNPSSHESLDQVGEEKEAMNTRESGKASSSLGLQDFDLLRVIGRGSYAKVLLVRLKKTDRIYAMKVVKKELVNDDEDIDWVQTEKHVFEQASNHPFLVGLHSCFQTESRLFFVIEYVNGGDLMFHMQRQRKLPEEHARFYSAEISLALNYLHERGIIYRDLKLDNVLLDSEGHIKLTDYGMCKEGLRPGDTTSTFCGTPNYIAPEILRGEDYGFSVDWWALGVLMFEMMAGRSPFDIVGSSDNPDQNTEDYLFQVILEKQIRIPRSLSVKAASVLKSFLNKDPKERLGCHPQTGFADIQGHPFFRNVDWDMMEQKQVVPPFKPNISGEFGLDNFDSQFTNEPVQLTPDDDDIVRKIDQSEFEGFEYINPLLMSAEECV
Protocol: as §1

[7] = biological target: ERN1 (Homo sapiens, UniProt O75460); conditions: for Inhibition at 1 µM (%): ERN1, LanthaScreen Binding
Protocol: as §1

[8] = 1 h, 1 μM WEL028, 1 h preincubation

Chain of BLK (P51451 whole entry): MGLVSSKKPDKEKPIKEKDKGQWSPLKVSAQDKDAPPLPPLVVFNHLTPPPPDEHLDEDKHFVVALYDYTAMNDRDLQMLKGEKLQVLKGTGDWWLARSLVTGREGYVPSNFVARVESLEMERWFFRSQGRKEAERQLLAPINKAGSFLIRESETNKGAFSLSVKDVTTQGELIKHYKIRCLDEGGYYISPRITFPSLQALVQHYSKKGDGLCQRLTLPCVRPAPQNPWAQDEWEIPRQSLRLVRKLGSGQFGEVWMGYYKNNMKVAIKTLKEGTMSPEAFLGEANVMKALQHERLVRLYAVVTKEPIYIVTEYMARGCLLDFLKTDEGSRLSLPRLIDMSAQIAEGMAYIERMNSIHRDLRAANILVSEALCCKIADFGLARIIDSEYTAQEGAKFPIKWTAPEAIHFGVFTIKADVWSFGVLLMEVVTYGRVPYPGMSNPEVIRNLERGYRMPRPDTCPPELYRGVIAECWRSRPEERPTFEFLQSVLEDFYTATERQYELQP
Chain of HIPK2 (Q9H2X6 whole entry): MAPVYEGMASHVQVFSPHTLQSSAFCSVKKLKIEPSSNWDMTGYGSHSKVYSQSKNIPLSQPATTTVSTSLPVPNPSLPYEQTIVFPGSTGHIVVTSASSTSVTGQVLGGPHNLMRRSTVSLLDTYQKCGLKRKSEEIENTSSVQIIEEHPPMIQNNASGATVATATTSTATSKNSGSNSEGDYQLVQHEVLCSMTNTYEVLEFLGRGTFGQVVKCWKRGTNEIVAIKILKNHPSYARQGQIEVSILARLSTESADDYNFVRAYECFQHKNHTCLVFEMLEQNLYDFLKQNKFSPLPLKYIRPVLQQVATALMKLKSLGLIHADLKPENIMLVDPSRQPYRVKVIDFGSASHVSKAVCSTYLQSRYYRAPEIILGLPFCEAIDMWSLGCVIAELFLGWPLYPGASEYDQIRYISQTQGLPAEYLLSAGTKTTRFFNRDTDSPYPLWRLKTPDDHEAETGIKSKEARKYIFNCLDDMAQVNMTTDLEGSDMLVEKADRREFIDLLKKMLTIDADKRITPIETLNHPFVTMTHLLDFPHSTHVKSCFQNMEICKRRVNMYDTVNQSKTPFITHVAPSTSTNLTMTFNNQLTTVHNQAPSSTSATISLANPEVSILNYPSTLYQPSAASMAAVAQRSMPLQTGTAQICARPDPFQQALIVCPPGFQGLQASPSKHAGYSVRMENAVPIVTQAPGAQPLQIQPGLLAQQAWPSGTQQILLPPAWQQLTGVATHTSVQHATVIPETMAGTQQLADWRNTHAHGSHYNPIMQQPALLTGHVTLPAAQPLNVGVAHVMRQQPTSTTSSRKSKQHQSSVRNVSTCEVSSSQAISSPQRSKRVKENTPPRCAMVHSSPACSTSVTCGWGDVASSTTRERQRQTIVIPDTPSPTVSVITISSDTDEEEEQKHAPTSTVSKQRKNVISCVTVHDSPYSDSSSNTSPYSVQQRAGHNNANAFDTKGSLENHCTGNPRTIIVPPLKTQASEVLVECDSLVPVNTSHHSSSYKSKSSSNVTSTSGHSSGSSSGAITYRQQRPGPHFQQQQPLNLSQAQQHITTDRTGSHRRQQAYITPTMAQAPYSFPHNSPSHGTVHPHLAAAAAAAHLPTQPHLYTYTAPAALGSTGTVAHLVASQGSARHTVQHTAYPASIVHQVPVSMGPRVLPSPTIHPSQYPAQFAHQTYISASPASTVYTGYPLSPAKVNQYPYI
Chain of ERN1 (O75460 19-977): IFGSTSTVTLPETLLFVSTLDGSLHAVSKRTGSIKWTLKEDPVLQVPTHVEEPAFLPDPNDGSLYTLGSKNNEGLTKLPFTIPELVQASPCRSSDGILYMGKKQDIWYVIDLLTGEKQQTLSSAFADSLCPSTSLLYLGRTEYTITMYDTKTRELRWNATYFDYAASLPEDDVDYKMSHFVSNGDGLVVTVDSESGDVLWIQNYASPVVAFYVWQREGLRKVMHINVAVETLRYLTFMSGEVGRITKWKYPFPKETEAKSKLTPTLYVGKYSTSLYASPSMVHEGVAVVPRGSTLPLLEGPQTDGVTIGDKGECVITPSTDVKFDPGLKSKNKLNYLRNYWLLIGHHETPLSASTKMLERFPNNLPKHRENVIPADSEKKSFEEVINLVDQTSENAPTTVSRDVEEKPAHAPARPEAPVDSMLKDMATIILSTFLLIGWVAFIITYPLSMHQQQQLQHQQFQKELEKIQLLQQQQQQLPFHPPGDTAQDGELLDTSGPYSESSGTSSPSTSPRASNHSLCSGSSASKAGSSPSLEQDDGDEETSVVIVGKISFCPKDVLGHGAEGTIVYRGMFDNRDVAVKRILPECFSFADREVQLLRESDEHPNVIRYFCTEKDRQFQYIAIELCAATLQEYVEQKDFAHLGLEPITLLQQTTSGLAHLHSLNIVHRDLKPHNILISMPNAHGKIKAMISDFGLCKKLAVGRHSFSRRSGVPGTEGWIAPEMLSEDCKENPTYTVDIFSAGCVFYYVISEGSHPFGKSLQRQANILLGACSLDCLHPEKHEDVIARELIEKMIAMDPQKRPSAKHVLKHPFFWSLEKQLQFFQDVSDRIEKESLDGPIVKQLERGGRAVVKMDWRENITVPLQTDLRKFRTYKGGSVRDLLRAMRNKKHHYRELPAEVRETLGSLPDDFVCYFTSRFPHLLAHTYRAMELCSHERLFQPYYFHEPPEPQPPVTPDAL
Chain of CDK14 (PFTK1)/cyclin Y (O94921 whole entry): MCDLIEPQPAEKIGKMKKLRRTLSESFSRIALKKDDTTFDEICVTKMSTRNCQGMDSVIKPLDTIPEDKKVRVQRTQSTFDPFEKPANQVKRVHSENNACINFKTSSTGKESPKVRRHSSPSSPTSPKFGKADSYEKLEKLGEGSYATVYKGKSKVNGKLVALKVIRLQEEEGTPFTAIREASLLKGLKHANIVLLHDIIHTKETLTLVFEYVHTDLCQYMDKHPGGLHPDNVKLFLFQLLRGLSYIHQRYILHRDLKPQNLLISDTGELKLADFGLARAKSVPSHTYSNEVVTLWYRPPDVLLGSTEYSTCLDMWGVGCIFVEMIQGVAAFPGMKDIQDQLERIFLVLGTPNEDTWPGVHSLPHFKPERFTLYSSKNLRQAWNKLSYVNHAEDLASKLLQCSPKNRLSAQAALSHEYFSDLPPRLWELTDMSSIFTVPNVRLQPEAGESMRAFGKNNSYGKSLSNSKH
Chain of CDK14 (PFTK1)/cyclin Y (Q8ND76 whole entry partner): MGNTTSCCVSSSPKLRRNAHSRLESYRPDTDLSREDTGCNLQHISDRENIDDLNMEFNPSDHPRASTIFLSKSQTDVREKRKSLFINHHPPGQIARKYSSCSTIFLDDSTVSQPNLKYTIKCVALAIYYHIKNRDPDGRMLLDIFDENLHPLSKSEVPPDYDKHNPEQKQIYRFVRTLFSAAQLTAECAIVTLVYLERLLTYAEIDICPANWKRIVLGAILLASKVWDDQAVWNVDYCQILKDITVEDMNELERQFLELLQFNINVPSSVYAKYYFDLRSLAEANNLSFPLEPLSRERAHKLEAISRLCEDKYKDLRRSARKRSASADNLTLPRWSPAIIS

C#CCOc1ccc(Nc2ncc(Cl)c(Nc3ccccc3NC(=O)C=C)n2)c(OC)c1 [Compound 6]
Inhibition (%) ([1]; 1 μM WEL028, 1 h preincubation): -7%
Inhibition at 1 µM (%) ([1]; CDK14 (PFTK1)/cyclin Y, 1 µM, LanthaScreen Binding): -14%
inhibition at 1 µM [2, 8]: 0%
Inhibition at 1 µM (%) ([2]; BLK, 1 µM, ZLYTE, ATP Km app, listed as WEL028, 1 µM): 4% and -5%
inhibition at 1 µM [3, 8]: 14%
Inhibition at 1 µM (%) ([3]; MYO3B (MYO3 beta), 1 µM, LanthaScreen Binding, listed as WEL028, 1 µM): 13%
inhibition at 1 µM ([3]; read-out: Inhibition at 1 µM (%), MYO3B (MYO3 beta), 1 µM, LanthaScreen Binding): 15%
inhibition at 1 µM [4, 8]: 1%
Inhibition at 1 µM (%) [4]: 2%
Inhibition at 1 µM (%) ([4]; listed as WEL028, 1 µM): 0%
inhibition at 1 µM [5, 8]: 10%
Inhibition at 1 µM (%) ([5]; MYLK4, 1 µM, LanthaScreen Binding, listed as WEL028, 1 µM): 14%
inhibition at 1 µM ([5]; read-out: Inhibition at 1 µM (%), MYLK4, 1 µM, LanthaScreen Binding): 7%
inhibition at 1 µM [6, 8]: 10%
Inhibition at 1 µM (%) [6]: 15%
Inhibition at 1 µM (%) ([6]; listed as WEL028, 1 µM): 5%
inhibition at 1 µM [7, 8]: 8%
Inhibition at 1 µM (%) [7]: 13%
Inhibition at 1 µM (%) ([7]; listed as WEL028, 1 µM): 4%
